Measured values published in patent publication US20020103185A1, “Pyrazole derivatives” (priority 2000, published 2002).
Where a name gives a salt, the structure may show the parent alone.

| melting point [°C] | SMILES |
| --- | --- |
| 139.8 | O=C(Cc1cccc2ccccc12)Nc1cc([C@H]2C[C@@H](NC(=O)C3CC3c3ccccc3)C2)[nH]n1 (stereo partly drawn) (as salt: HCl) [Example 47, 2-Phenyl-cyclopropanecarboxylic acid {cis-3-[5-(2-naphthalen-1-yl-acetylamino)-2H-pyrazol-3-yl]-cyclobutyl}-amide] |
| 209.4 | CC(=O)N[C@H]1C[C@@H](c2cc(NC(=O)Cc3cccc4ccccc34)n[nH]2)C1 (as salt: HCl) [Example 48, N-[5-(cis-3-Acetylamino-cyclobutyl)-1H-pyrazol-3-yl]-2-naphthalen-1-yl-acetamide] |
| 194 | O=C(Cc1cccc2ccccc12)Nc1cc([C@H]2C[C@@H](NC(=O)c3ccccc3)C2)[nH]n1 (as salt: HCl) [Example 49, N-{cis-3-[5-(2-Naphthalen-1-yl-acetylamino)-2H-pyrazol-3-yl]-cyclobutyl}-benzamide] |
| 93.2 | O=C(Cc1cccc2ccccc12)Nc1cc([C@H]2C[C@@H](NC(=O)CC3CC3)C2)[nH]n1 (as salt: HCl) [Example 50, 2-Cyclopropyl-N-{cis-3-[5-(2-naphthalen-1-yl-acetylamino)-2H-pyrazol-3-yl]-cyclobutyl}-acetamide] |
| 200.3 | O=C(Cc1cccc2ccccc12)Nc1cc([C@H]2C[C@@H](NC(=O)c3ccc4ccccc4n3)C2)[nH]n1 (as salt: HCl) [Example 52, Quinoline-2-carboxylic acid {cis-3-[5-(2-naphthalen-1-yl-acetylamino)-2H-pyrazol-3-yl]-cyclobutyl}-amide] |
| 175.6 | COc1ccc(C(=O)N[C@H]2C[C@@H](c3cc(NC(=O)Cc4cccc5ccccc45)n[nH]3)C2)cc1 (as salt: HCl) [Example 54, 4-Methoxy-N-{cis-3-[5-(2-naphthalen-1-yl-acetylamino)-2H-pyrazol-3-yl]-cyclobutyl}-benzamide] |
| 123.5 | O=C(Cc1cccc2ccccc12)Nc1cc([C@H]2C[C@@H](NC(=O)c3cccc([N+](=O)[O-])c3)C2)[nH]n1 (as salt: HCl) [Example 55, N-{cis-3-[5-(2-Naphthalen-1-yl-acetylamino)-2H-pyrazol-3-yl]-cyclobutyl}-3-nitro-benzamide] |
| 142 | O=C(Cc1cccc2ccccc12)Nc1cc([C@H]2C[C@@H](Oc3nc4ccccc4o3)C2)[nH]n1 (as salt: HCl) [Example 63, N-{5-[cis-3-(Benzooxazol-2-yloxy)-cyclobutyl]-1H-pyrazol-3-yl}-2-naphthalen-1-yl-acetamide] |

The next lines start with the compound.

| SMILES | melting point [°C] |
| --- | --- |
| O=C(NC1CCC(c2cc(Nc3cccc(C(F)(F)F)c3)n[nH]2)C1)c1ccccn1 (centres unmarked) (as salt: HCl) [Example 31, Pyridine-2-carboxylic acid {3-[5-(3-trifluoromethyl-phenylamino)-2H-pyrazol-3-yl]-cyclopentyl}-amide] | 180.1 |
| O=C(NC1CCC(c2cc(Nc3cccc(C(F)(F)F)c3)n[nH]2)C1)C1CCC1 (centres unmarked) (as salt: HCl) [Example 33, Cyclobutanecarboxylic acid {3-[5-(3-trifluoromethyl-phenylamino)-2H-pyrazol-3-yl]-cyclopentyl}-amide] | 232.4 |
| CC(C)(C)C(=O)NC1CCC(c2cc(Nc3cccc(C(F)(F)F)c3)n[nH]2)C1 (centres unmarked) (as salt: HCl) [Example 34, 2,2-Dimethyl-N-{3-[5-(3-trifluoromethyl-phenylamino)-2H-pyrazol-3-yl]-cyclopentyl}-propionamide] | 249.2 |
| COc1cccc(C(=O)N[C@H]2C[C@@H](c3cc(NC(=O)Cc4cccc5ccccc45)n[nH]3)C2)c1 (as salt: HCl) [Example 44, 3-Methoxy-N-{cis-3-[5-(2-naphthalen-1-yl-acetylamino)-2H-pyrazol-3-yl]-cyclobutyl}-benzamide] | 124.8 |
| O=C(Cc1cccc2ccccc12)Nc1cc([C@H]2C[C@@H](NC(=O)c3cccc(C(F)(F)F)c3)C2)[nH]n1 (as salt: HCl) [Example 45, N-{cis-3-[5-(2-Naphthalen-1-yl-acetylamino)-2H-pyrazol-3-yl]-cyclobutyl}-3-trifluoromethyl-benzamide] | 142.8 |
| CC(C)C(=O)N[C@H]1C[C@@H](c2cc(NC(=O)Cc3cccc4ccccc34)n[nH]2)C1 (as salt: HCl) [Example 46, N-{cis-3-[5-(2-Naphthalen-1-yl-acetylamino)-2H-pyrazol-3-yl]-cyclobutyl}-isobutyramide] | 130.6 |
